Laboratory results reported in the OPERA property sets (Mansouri et al. 2018).

Conditions: 22.0 °C

Row | SMILES | log10 OH rate constant (cm³/molecule/s)
1 | C1=Cc2ccccc2C1 | -10.3
2 | FC(Cl)C(F)(F)C(F)(F)Cl (centres undefined) | -14.1
3 | CCCCSCCCC | -10.4

Same assay, conditions: 23.0 °C

Row | SMILES | log10 OH rate constant (cm³/molecule/s)
4 | FC(F)(Br)C(F)(F)Br | < -15.9
5 | C[C@@H]1CC[C@@H]2C[C@H]1C2(C)C | -10.9
6 | CC1(C)C2CC3C(C2)C31C | -11.5

Same assay, conditions: 24.0 °C

Row | SMILES | log10 OH rate constant (cm³/molecule/s)
7 | FC(F)(Br)Br | < -15.2

Same assay, conditions: 25.0 °C

Row | SMILES | log10 OH rate constant (cm³/molecule/s)
8 | CC#N | -13.6
9 | C=CC[N+](=O)[O-] | -10.9
10 | CCCCO[N+](=O)[O-] | -11.8
11 | CCCCCCCCCCCC | -10.8
12 | CCCCCCCCO | -10.8
13 | CSC | -11.3
14 | CCOCC | -10.9
15 | O=[N+]([O-])C1=CCCCC1 | -10.4
16 | CCON=O | -12.2
17 | FC(F)(F)Br | < -16
18 | CCCCON=O | -11.6
19 | FC(Br)(Br)Br | < -15
20 | CC(C)(C)OO | -11.5
21 | FC(F)(F)C(F)(F)C(Cl)Cl | -13.6
22 | CCCl | -12.4
23 | C | -14.2
24 | C=C[N+](=O)[O-] | -11.9
25 | CON=O | -12.7
26 | C1C2C3C2C2C1C32 (centres undefined) | -11.7
27 | COS(=O)(=O)OC | < -12.3
28 | CC[N+](=O)[O-] | -12.8
29 | FC(Cl)(Cl)Cl | < -15.3
